Like-named read-outs stand apart in the source and are kept apart here.
What was measured:
human α7 nAChR [1] = molecular target: T1, human α7 nAChR (Homo sapiens, UniProt P36544); parameters: method as in PMID 27774124; conditions: lead compounds, ratio of Ki values; cited from earlier work
T1 construct: expressed in transfected cells

human α3β4 nAChR [2] = molecular target: T2, human α3β4 nAChR (Homo sapiens, UniProt P30926+P32297); conditions: cited from earlier work; for Selectivity Ratios α4β2/α3β4 / Selectivity Ratios α7/α3β4: lead compounds, ratio of Ki values
T2 construct: expressed in transfected cells

human α7 nAChR [3] = molecular target: T1, human α7 nAChR; experiment: Radioligand displacement binding assay, membranes of SH-SY5Y cells stably transfected with human α7 nAChR; conditions: for Selectivity Ratios α4β2/α7: ratio of Ki values
human α3β4 nAChR [4] = molecular target: T2, human α3β4 nAChR; experiment: Competitive radioligand displacement binding assay, membranes of HEK293 cells stably transfected with human α3β4 nAChR; conditions: for Selectivity Ratios α4β2/α3β4 / Selectivity Ratios α7/α3β4: ratio of Ki values; for Selectivity Ratios α7/α3β4: given as fold
human α4β2 nAChR = molecular target: T3, human α4β2 nAChR (Homo sapiens, UniProt P17787+P43681); experiment: Competitive radioligand displacement binding assay, membranes of HEK293 cells stably transfected with human α4β2 nAChR
T3 construct: expressed in transfected cells

[5] = SH-SY5Y membranes, [3H]methyllycaconitine ~0.5 nM per table footnote, mean of two independent experiments, single values in brackets, read-out: Binding Affinity Ki α7

SMILES | Selectivity Ratios α4β2/α7 (human α7 nAChR [1]) | Selectivity Ratios α4β2/α3β4 (human α3β4 nAChR [2]) | Selectivity Ratios α7/α3β4 (human α3β4 nAChR [2]) | Ki (human α3β4 nAChR [2]; selective α3β4 nAChR ligands) | melting point | Ki (human α7 nAChR [3]; [5]) | Selectivity Ratios α4β2/α7 (human α7 nAChR [3]) | Ki (human α3β4 nAChR [4]) | Selectivity Ratios α4β2/α3β4 (human α3β4 nAChR [4]) | Selectivity Ratios α7/α3β4 (human α3β4 nAChR [4]) | Ki (human α4β2 nAChR) | Ki (human α7 nAChR [3])
Oc1ccc(-c2cn([C@@H]3CN4CCC3CC4)nn2)cc1 [(S)-QND8] | 15.7 | 186 | 11.8 |  |  |  |  |  |  |  |  | 
Fc1ccc(-c2cn([C@@H]3CN4CCC3CC4)nn2)cc1 [(S)-T1] |  |  |  | < 10 nM |  |  |  |  |  |  |  | 
Fc1cccc(-c2cn([C@@H]3CN4CCC3CC4)nn2)c1 [(S)-T2] | 0.79 | 231 | 294 |  |  |  |  |  |  |  |  | 
Oc1ccc(-c2cn([C@@H]3CN4CCC3CC4)nn2)cc1F [AK1, 2-Fluoro-4-(1-((1R,3S,4R)-quinuclidin-3-yl)-1H-1,2,3-triazol-4-yl)phenol] |  |  |  |  | 258 °C (dec.) | 26.7 nM | 18.9 | 2.28 nM | 221 | 11.7 | 504 nM | 
Oc1ccc(-c2cn([C@H]3CN4CCC3CC4)nn2)cc1F [AK2, 2-Fluoro-4-(1-((1S,3R,4S)-quinuclidin-3-yl)-1H-1,2,3-triazol-4-yl)phenol] |  |  |  |  | 275 °C (dec.) | 4.49 nM | 1331 | 601 nM | 9.95 | 0.01 | 5980 nM | 
Fc1cc(-c2cn([C@@H]3CN4CCC3CC4)nn2)ccc1OCc1ccccc1 [AK3, (1R,3S,4R)-3-(4-(4-(Benzyloxy)-3-fluorophenyl)-1H-1,2,3-triazol-1-yl)quinuclidine] |  |  |  |  | 173 to 175 °C |  | 0.02 | 3.18 nM | 56.6 | 3069 | 180 nM | 9760 nM
Fc1cc(-c2cn([C@H]3CN4CCC3CC4)nn2)ccc1OCc1ccccc1 [AK4, (1S,3R,4S)-3-(4-(4-(Benzyloxy)-3-fluorophenyl)-1H-1,2,3-triazol-1-yl)quinuclidine] |  |  |  |  | 180 to 181 °C | 53.6 nM | 77.9 | 112 nM | 37.3 | 0.48 | 4180 nM | 
